# Source: patent publication US9958439B2, “Carbohydrate detection” (RICHTER LIFE SCIENCE DEVELOPMENT AB, priority 2012, dated 2018)
# Read-outs that look alike come from different tables or passages of the source.
# Legend:
# [1] = Protocol: 3 μM of each probe was applied to serial two fold dilutions of the insoluble carbohydrate of which the concentration shown here are 5 mg/ml (_.), 2.5 mg/ml (. . . ), 1.25 mg/ml (__) and 0 mg/ml (_). The excitation spectrum of the probe was analyzed for wavelengths 300-500 nm with emission read at 545 nm.
# (§1) 3 μM of each probe was applied to serial two fold dilutions of the insoluble carbohydrate. Respective probes were excited at wavelengths unique to each probe (specified in figure), and emission was read at 545 nm.
# (§2) Serial dilutions of carbohydrate suspensions were prepared in dH2O. Concentrations ranging from 10 to 0.039 mg/ml was used for β-1,3-glucan, cellulose and chitin, whereas 5 to 0.019 mg/ml was used for sodium alginate, glucose, amylose, glycogen, cellulobiose, heparin, chondroitin sulfate A. 3 μM of each LCO probe was added to 1 ml aliquots of each concentration of carbohydrate, after which 100 μl was dispensed in triplicates into 96 well plates. Excitation spectra were collected by exciting the sample from 300 to 500 nm and detecting emission at 545 nm. Detection of carbohydrate is concluded when there is a reproducible change in λmax and/or RFU intensity with reference to the negative control. Data from three concentrations, as well as the negative control are shown for each carbohydrate as specified in respective figure.
# (§3) The excitation wavelength (emission detected at 545 nm) selected for each LCO is either (1) the λmax, or (2) the excitation wavelength which suffers the lowest background. A linear regression analysis is performed to determine the relationship between the carbohydrate concentration and RFU.
# [2] = remark: listed apart in the source
# Protocol: (§4) 3 μM of each probe was applied to serial two fold dilutions of the carbohydrate of which the concentration shown here are 5 mg/ml (_.), 2.5 mg/ml (. . . ) 1.25 mg/ml (__) and 0 mg/ml (_). The excitation spectrum of the probe was analyzed for wavelengths 300-500 nm with emission read at 545 nm.
# 3 μM of each probe was applied to serial two fold dilutions of the carbohydrate. Respective probes were excited at wavelengths unique to each probe (specified in figure), and emission was read at 545 nm. […] The mean increase in signal (_) with [Glucose] and the fitted regression line (__) is shown.
# as §2, §3
# [3] = for RFU change (Correlation analysis) / RFU change (Signal deviation with increasing [Carbohydrate]) / λmax change: 3 μM probe; for RFU change (Correlation analysis): probe-specific excitation λ, emission 545 nm; for RFU change (Signal deviation with increasing [Carbohydrate]) / λmax change: spectral analysis, Excitation 300-500, Emission 545; for carbohydrate can be detected and/or differentiated by the LCO: conclusion from change in signal magnitude and/or shift in λmax; for Gradient Parameters (gradient of regression line) / Linear relationship / Quality of Gradient: linear regression
# Protocol: (§5) The excitation spectrum of the probe was analyzed for wavelengths 300-500 nm with emission read at 545 nm.
# as §1, §2, §3
# [4] = for RFU change (Correlation analysis) / RFU change (Signal deviation with increasing [Carbohydrate]) / λmax change: 3 μM probe; for RFU change (Correlation analysis): probe-specific excitation λ, emission 545 nm; for RFU change (Signal deviation with increasing [Carbohydrate]) / λmax change: spectral analysis, Excitation 300-500, Emission 545
# Protocol: 3 μM of each probe was applied to serial two fold dilutions of the carbohydrate of which the concentration shown here are 5 mg/ml (_.), 2.5 mg/ml (. . . ), 1.25 mg/ml (__) and 0 mg/ml (_). The excitation spectrum of the probe was analyzed for wavelengths 300-500 nm with emission read at 545 nm.
# (§6) 3 μM of each probe was applied to serial two fold dilutions of the carbohydrate. Respective probes were excited at wavelengths unique to each probe (specified in figure), and emission was read at 545 nm.
# as §2, §3
# [5] = for RFU change (Correlation analysis): probe-specific excitation λ, emission 545 nm
# Protocol: as §4, §6, §2, §3
# [6] = remark: listed apart in the source
# Protocol: as §5, §6, §2, §3
# [7] = Sodium alginate 5-0.019 mg/ml, 3 μM probe, spectral analysis, Excitation 300-500, Emission 545
# [8] = sodium alginate concentration vs RFU, linear regression
# [9] = glucose concentration vs RFU, linear regression
# [10] = β-1,3-glucan concentration vs RFU
# [11] = glycogen concentration vs RFU, linear regression
# [12] = heparin concentration vs RFU, linear regression
# [13] = Cellulobiose 5-0.019 mg/ml, 3 μM probe, spectral analysis, Excitation 300-500, Emission 545
# [14] = amylose concentration vs RFU, linear regression
# [15] = cellulobiose concentration vs RFU, linear regression
# [16] = Chondroitin Sulfate A 5-0.019 mg/ml, 3 μM probe, spectral analysis, Excitation 300-500, Emission 545
# [17] = Chondroitin Sulfate A concentration vs RFU, linear regression
smiles,measurement,setting,value
"Cl.Cl.NCCc1cc(-c2cccs2)sc1-c1ccc(-c2sc(-c3cccs3)cc2CCN)s1 [pHTEA, penta Hydrogen Thiophene Ethanol Amine]",RFU change (Correlation analysis),"[1]; Sodium alginate 5-0.019 mg/ml, 3 μM probe, probe-specific excitation λ, emission 545 nm",Increases
same,RFU change (Signal deviation with increasing [Carbohydrate]),[1]; [7],Increases
same,λmax change,[1]; [7],Redshift
same,carbohydrate can be detected and/or differentiated by the LCO,"[1]; Sodium alginate, conclusion from change in signal magnitude and/or shift in λmax",can be detected and/or differentiated
same,Gradient Parameters (gradient of regression line),[1]; [8],832.4 ± 174.5
same,Linear relationship,[1]; [8],Significant
same,Quality of Gradient,[1]; [8],Positive
same,Sensitivity,[1]; to sodium alginate,Yes
same,RFU change (Correlation analysis),"[2]; Glucose 5-0.019 mg/ml, 3 μM probe, probe-specific excitation λ, emission 545 nm",Unclear
same,RFU change (Signal deviation with increasing [Carbohydrate]),"[2]; Glucose 5-0.019 mg/ml, 3 μM probe, spectral analysis, Excitation 300-500, Emission 545",Increases
same,Gradient Parameters (gradient of regression line),[2]; [9],−67.4 ± 37.2
same,Quality of Gradient,[2]; [9],Horizontal
same,Sensitivity,[2]; to glucose,No
same,RFU change (Correlation analysis),[3]; Cellulose 10-[…],Increase
same,RFU change (Signal deviation with increasing [Carbohydrate]),[3]; Cellulose 10-[…],Increase
same,λmax change,[3]; Cellulose 10-[…],Redshift
same,carbohydrate can be detected and/or differentiated by the LCO,[3]; Cellulose,can be detected and/or differentiated
same,RFU change (Correlation analysis),[3]; Chitin 10-[…],Decreases
same,RFU change (Signal deviation with increasing [Carbohydrate]),[3]; Chitin 10-[…],Decrease
same,λmax change,[3]; Chitin 10-[…],Redshift
same,carbohydrate can be detected and/or differentiated by the LCO,[3]; Chitin,can be detected and/or differentiated
same,Gradient Parameters (gradient of regression line),[3]; cellulose concentration vs RFU,6001 ± 1187
same,Linear relationship,[3]; cellulose concentration vs RFU,Significant
same,Quality of Gradient,[3]; cellulose concentration vs RFU,Positive
same,Gradient Parameters (gradient of regression line),[3]; chitin concentration vs RFU,−9030 ± 110.1
same,Linear relationship,[3]; chitin concentration vs RFU,Significant
same,Quality of Gradient,[3]; chitin concentration vs RFU,Negative
same,Sensitivity,[3]; to cellulose,Yes
same,Sensitivity,[3]; to chitin,Yes
same,Sensitivity,"[3]; to β-1,3-glucan",Yes
same,carbohydrate can be detected and/or differentiated by the LCO,"[3]; β-1,3-Glucan",can be detected and/or differentiated
same,RFU change (Correlation analysis),"[3]; β-1,3-glucan 10-[…]",Decrease
same,RFU change (Signal deviation with increasing [Carbohydrate]),"[3]; β-1,3-glucan 10-[…]",Decrease
same,λmax change,"[3]; β-1,3-glucan 10-[…]",Redshift
same,Gradient Parameters (gradient of regression line),[3]; [10],−664.6 ± 206.2
same,Quality of Gradient,[3]; [10],Negative
same,RFU change (Correlation analysis),[4]; Glycogen 5-0.019 mg/ml,Decreases
same,RFU change (Signal deviation with increasing [Carbohydrate]),[4]; Glycogen 5-0.019 mg/ml,Decreases
same,λmax change,[4]; Glycogen 5-0.019 mg/ml,Redshift
same,carbohydrate can be detected and/or differentiated by the LCO,"[4]; Glycogen, conclusion from change in signal magnitude and/or shift in λmax",can be detected and/or differentiated
same,RFU change (Correlation analysis),[4]; Heparin 5-0.019 mg/ml,Unclear
same,RFU change (Signal deviation with increasing [Carbohydrate]),[4]; Heparin 5-0.019 mg/ml,Decreases
same,λmax change,[4]; Heparin 5-0.019 mg/ml,Redshift
same,Gradient Parameters (gradient of regression line),[4]; [11],−451 ± 328
same,Quality of Gradient,[4]; [11],Negative
same,Gradient Parameters (gradient of regression line),[4]; [12],−109.3 ± 248
same,Linear relationship,[4]; [12],Not Significant
same,Quality of Gradient,[4]; [12],Horizontal
same,Sensitivity,[4]; to glycogen,Yes
same,Sensitivity,[4]; to heparin,No
same,RFU change (Correlation analysis),"[5]; Amylose 5-0.019 mg/ml, 3 μM probe",Decreases
same,RFU change (Signal deviation with increasing [Carbohydrate]),"[5]; Amylose 5-0.019 mg/ml, 3 μM probe, spectral analysis, Excitation 300-500, Emission 545",Decreases
same,carbohydrate can be detected and/or differentiated by the LCO,"[5]; Amylose, conclusion from change in signal magnitude and/or shift in λmax",can be detected and/or differentiated
same,RFU change (Correlation analysis),"[5]; Cellulobiose 5-0.019 mg/ml, 3 μM probe",Unclear
same,RFU change (Signal deviation with increasing [Carbohydrate]),[5]; [13],Unclear
same,λmax change,[5]; [13],No change
same,Gradient Parameters (gradient of regression line),[5]; [14],−6680 ± 1421
same,Linear relationship,[5]; [14],Significant
same,Quality of Gradient,[5]; [14],Negative
same,Gradient Parameters (gradient of regression line),[5]; [15],39.5 ± 66.5
same,Quality of Gradient,[5]; [15],Horizontal
same,Sensitivity,[5]; to amylose,Yes
same,Sensitivity,[5]; to cellulobiose,No
same,RFU change (Correlation analysis),"[6]; Chondroitin Sulfate A 5-0.019 mg/ml, 3 μM probe, probe-specific excitation λ, emission 545 nm",Increases
same,RFU change (Signal deviation with increasing [Carbohydrate]),[6]; [16],Increases
same,λmax change,[6]; [16],Redshift
same,Gradient Parameters (gradient of regression line),[6]; [17],5989 ± 727
same,Linear relationship,[6]; [17],Significant
same,Quality of Gradient,[6]; [17],Positive
same,carbohydrate can be detected and/or differentiated by the LCO,"[6]; Chondroitin sulfate A, conclusion from change in signal magnitude and/or shift in λmax",can be detected and/or differentiated
same,Sensitivity,[6]; to Chondroitin Sulfate A,Yes
